One may read the IC50 as the concentration needed to halve the response being measured. Low values mean inhibition by little substance, high ones a need for much substance.

For two compounds, IC50 results are on record in patent US11299490B2, “Benzenesulfonamide compounds and their use as therapeutic agents” (Xenon Pharmaceuticals Inc., priority 2016, dated 2022).

The target of one data set is NaV1.1 (Homo sapiens (Human), UniProt P35498). Put plainly: Sodium Influx Assay (Flux), NaV1.1. It counts as cell-based. Conditions: Trex HEK293 cells, ANG2 dye; arithmetic mean. The source says: Sodium Influx Assay (In Vitro Assay)
In another data set the target is NaV1.6 (Homo sapiens (Human), UniProt Q9UQD0). Put plainly: Sodium Influx Assay (Flux), NaV1.6.
Data set [1] addresses T1, NaV1.5 (Homo sapiens (Human), UniProt Q14524). Put plainly: cell-based.
Data set [2] has as its target T1, NaV1.5. Put plainly: Electrophysiological Assay (EP, patch voltage clamp), NaV1.5. It counts as cell-based. Conditions: HEK-293 cells, whole-cell patch clamp, inactivated state; arithmetic mean. The procedure:
Sodium currents were measured using the patch clamp technique in the whole-cell configuration using either a PatchXpress automated voltage clamp or manually using an Axopatch 200B (Axon Instruments) or Model 2400 (A-M systems) amplifier. […] In some studies, the external sodium was reduced by equimolar replacement with choline. […] All recordings were performed at ambient temperature in a bath chamber with a volume of 150 μL. Control sodium currents were measured in 0.5% DMSO. Controls and representative compounds of the invention were applied to the recording chamber through a 4-pinch or 8-pinch valve bath perfusion system manufactured by ALA Scientific Instruments.
Series resistance compensation was applied (60-80%). […] All statistics in this study are given as mean±SD.
The membrane potential was maintained at a voltage where inactivation of the channel is complete. The voltage is then stepped back to a very negative (Vhold=−150 mV) voltage for 20 ms and then a test pulse is applied to quantify the compound block. […] The percent decrease in sodium current following wash-on of compound was taken as the percent block of sodium channels.
A general note: In patch-clamp work, channel activity is measured electrically.

T1 sequence (Q14524 other isoform, or with tags, fused parts or gaps): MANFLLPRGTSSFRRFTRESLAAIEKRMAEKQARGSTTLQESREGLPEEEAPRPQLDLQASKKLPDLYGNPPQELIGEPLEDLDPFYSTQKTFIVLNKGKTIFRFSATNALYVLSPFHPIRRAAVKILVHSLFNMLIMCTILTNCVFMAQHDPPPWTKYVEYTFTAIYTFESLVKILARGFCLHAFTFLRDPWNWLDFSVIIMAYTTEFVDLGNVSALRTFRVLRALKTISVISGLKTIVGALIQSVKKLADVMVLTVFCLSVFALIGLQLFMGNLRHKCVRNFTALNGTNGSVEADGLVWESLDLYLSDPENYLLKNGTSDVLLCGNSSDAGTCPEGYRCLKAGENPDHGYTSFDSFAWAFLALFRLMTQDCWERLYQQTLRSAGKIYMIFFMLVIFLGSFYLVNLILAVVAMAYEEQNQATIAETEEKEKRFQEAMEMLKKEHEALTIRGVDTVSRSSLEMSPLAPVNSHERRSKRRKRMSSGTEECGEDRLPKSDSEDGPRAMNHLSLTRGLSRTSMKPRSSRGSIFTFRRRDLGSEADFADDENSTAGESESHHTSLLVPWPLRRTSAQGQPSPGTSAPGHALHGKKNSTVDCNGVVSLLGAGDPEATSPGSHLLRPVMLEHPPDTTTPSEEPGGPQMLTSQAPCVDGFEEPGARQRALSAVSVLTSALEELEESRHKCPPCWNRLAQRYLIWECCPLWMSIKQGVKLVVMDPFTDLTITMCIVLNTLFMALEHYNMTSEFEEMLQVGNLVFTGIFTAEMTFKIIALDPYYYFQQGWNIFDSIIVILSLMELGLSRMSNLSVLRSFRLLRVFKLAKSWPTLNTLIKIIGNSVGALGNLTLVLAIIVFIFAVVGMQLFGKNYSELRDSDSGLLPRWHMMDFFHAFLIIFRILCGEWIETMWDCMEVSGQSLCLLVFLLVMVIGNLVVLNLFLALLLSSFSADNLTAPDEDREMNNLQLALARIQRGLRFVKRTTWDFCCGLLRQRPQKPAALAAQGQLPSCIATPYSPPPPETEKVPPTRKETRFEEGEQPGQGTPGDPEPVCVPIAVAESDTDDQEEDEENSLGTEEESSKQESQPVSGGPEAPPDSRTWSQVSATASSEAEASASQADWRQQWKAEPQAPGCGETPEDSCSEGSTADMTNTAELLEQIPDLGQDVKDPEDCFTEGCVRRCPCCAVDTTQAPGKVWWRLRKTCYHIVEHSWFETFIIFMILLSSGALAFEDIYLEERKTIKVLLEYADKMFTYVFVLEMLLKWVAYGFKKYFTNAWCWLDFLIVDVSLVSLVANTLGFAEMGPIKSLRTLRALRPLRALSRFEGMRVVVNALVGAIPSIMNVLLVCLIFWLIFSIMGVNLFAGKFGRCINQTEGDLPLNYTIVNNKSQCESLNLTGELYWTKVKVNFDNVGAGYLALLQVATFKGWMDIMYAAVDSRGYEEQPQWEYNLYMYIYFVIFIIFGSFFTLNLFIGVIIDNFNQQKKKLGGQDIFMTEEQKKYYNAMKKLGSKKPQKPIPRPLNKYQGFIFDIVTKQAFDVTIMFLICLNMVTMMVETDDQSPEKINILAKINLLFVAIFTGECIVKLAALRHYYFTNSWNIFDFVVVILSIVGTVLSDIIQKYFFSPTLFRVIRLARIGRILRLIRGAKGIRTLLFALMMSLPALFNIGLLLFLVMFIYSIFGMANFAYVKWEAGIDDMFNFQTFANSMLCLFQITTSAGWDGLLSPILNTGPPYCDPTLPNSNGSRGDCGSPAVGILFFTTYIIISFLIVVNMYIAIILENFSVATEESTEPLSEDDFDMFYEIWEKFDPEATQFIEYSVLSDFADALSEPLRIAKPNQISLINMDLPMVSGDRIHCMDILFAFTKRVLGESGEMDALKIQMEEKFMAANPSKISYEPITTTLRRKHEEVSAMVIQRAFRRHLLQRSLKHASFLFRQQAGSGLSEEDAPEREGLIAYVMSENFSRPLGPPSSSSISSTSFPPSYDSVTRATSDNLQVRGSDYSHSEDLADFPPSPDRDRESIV

For the compound `C[C@@H]1[C@H](N(C)c2cc(F)c(S(=O)(=O)Nc3cscn3)cc2Cl)CCN1Cc1ccccc1` (racemic) [Example 309, rac-4-(((2R,3R)-1-benzyl-2-methylpyrrolidin-3-yl)(methyl)amino)-5-chloro-2-fluoro-N-(thiazol-4-yl)benzenesulfonamide], the figures for the IC50 at NaV1.1, on NaV1.6 and against NaV1.5 [1] were 8.44 µM, 6.86 µM and 7.35 µM, respectively.

With `Cc1c(N(C)[C@H]2CCN(Cc3ccccc3)C2)cc(F)c(S(=O)(=O)Nc2cscn2)c1F` [Example 103, (S)-4-((1-benzylpyrrolidin-3-yl)(methyl)amino)-2,6-difluoro-3-methyl-N-(thiazol-4-yl)benzenesulfonamide 2,2,2-trifluoroacetate], on NaV1.5 [2], the IC50 was > 30 µM.
